According to patent US20060018970A1, “Enoximone formulations and their use in the treatment of cardiac hypertrophy and heart failure” (Myogen, Inc., priority 2003, published 2006):
Like-named read-outs stand apart in the source and are kept apart here.

Key:
[1] = test system: patients with the most advanced stage of chronic heart failure dependent on intravenous inotrope therapy; settings: cited from earlier work
clinical [2] = settings: human, plasma
clinical [3] = settings: human, in vivo, plasma concentration
[4] = Solubility in the physiological pH range; assay type: physicochemical; settings: data unpublished
[5] = test system: type-III phosphodiesterase (PDE-III); settings: cited from earlier work

SMILES: CSc1ccc(C(=O)c2[nH]c(=O)[nH]c2C)cc1 [enoximone, 1,3-Dihydro-4-methyl-5-[4-(methylthio)benzoyl]-2H-imidazol-2-one]
- time to death or re-initiation of i.v. inotrope therapy ([1]; 60-day (p=0.012), 75-day (p=0.016) and 90-day (p=0.041) periods): benefit in favor of enoximone versus placebo
- time to death or re-initiation of i.v. inotrope therapy ([1]; 182-day period (p=0.188)): not
- mean total days on i.v. inotrope therapy over the course of the study ([1]; placebo 49 days, p=0.049): 28 days
- plasma concentration (Patient 1, dose 50 mg, PREDOSE): 69.7 ng/mL
- plasma concentration (Patient 4, dose 25 mg, HR ALIQUOT 1 (between 0.5 HR and 2 HR)): 65.8 ng/mL
- concentration at 0.5 h (clinical [2]; 25 mg, Patient 4, dose 25 mg): 23.7 ng/mL
- concentration at 2 h (clinical [2]; 25 mg, Patient 4, dose 25 mg, 2 HR): 63.6 ng/mL
- concentration at 0 h (clinical [2]; 25 mg, Patient 4, dose 25 mg, PREDOSE): 18.6 ng/mL
- concentration at 2 h (clinical [2]; 50 mg, Max, 2 hrs, after dosing of enoximone, 5 patients, raw data): 383 ng/mL
- concentration at 0.5 h (clinical [2]; 50 mg, Patient 1, dose 50 mg): 118 ng/mL
- concentration at 1 h (clinical [2]; 50 mg, Patient 1, dose 50 mg): 424 ng/mL
- concentration at 2 h (clinical [2]; 50 mg, Patient 1, dose 50 mg, 2 HR): 383 ng/mL
- concentration at 4 h (clinical [2]; 50 mg, Patient 1, dose 50 mg, 4 HR): 209 ng/mL
- concentration at 6 h (clinical [2]; 50 mg, Patient 1, dose 50 mg): 112 ng/mL
- concentration at 0.5 h (clinical [2]; 50 mg, Patient 2, dose 50 mg): 52.8 ng/mL
- concentration at 1 h (clinical [2]; 50 mg, Patient 2, dose 50 mg): 49.8 ng/mL
- concentration at 2 h (clinical [2]; 50 mg, Patient 2, dose 50 mg, 2 HR): 127 ng/mL
- concentration at 4 h (clinical [2]; 50 mg, Patient 2, dose 50 mg, 4 HR): 237 ng/mL
- concentration at 6 h (clinical [2]; 50 mg, Patient 2, dose 50 mg): 122 ng/mL
- concentration at 0 h (clinical [2]; 50 mg, Patient 2, dose 50 mg, PREDOSE): 66.7 ng/mL
- concentration at 0.5 h (clinical [2]; 50 mg, Patient 3, dose 50 mg): 92.4 ng/mL
- concentration at 1 h (clinical [2]; 50 mg, Patient 3, dose 50 mg): 118 ng/mL
- concentration at 2 h (clinical [2]; 50 mg, Patient 3, dose 50 mg, 2 HR): 110 ng/mL
- concentration at 4 h (clinical [2]; 50 mg, Patient 3, dose 50 mg, 4 HR): 78.2 ng/mL
- concentration at 6 h (clinical [2]; 50 mg, Patient 3, dose 50 mg): 71.7 ng/mL
- concentration at 0 h (clinical [2]; 50 mg, Patient 3, dose 50 mg, PREDOSE): 34.4 ng/mL
- concentration at 0.5 h (clinical [2]; 50 mg, Patient 5, dose 50 mg): 137 ng/mL
- concentration at 1 h (clinical [2]; 50 mg, Patient 5, dose 50 mg): 355 ng/mL
- concentration at 2 h (clinical [2]; 50 mg, Patient 5, dose 50 mg, 2 HR): 369 ng/mL
- concentration at 4 h (clinical [2]; 50 mg, Patient 5, dose 50 mg, 4 HR): 268 ng/mL
- concentration at 6 h (clinical [2]; 50 mg, Patient 5, dose 50 mg): 166 ng/mL
- concentration at 0 h (clinical [2]; 50 mg, Patient 5, dose 50 mg, PREDOSE): 149 ng/mL
- concentration at 0 h (clinical [2]; Max, 0 hr, after dosing of enoximone, 5 patients, raw data): 149 ng/mL
- concentration at 4 h (clinical [2]; Max, 4 hrs, after dosing of enoximone, 5 patients, raw data): 268 ng/mL
- concentration at 8 h (clinical [2]; Max, after dosing of enoximone, 5 patients, raw data): 166 ng/mL
- concentration at 0 h (clinical [2]; Min, 0 hr, after dosing of enoximone, 5 patients, raw data): 7.95 ng/mL
- concentration at 2 h (clinical [2]; Min, 2 hrs, after dosing of enoximone, 5 patients, raw data): 63.6 ng/mL
- concentration at 4 h (clinical [2]; Min, 4 hrs, after dosing of enoximone, 5 patients, raw data): 44 ng/mL
- concentration at 8 h (clinical [2]; Min, after dosing of enoximone, 5 patients, raw data): 20.7 ng/mL
- concentration at 0 h (clinical [3]; Max): 150 ng/mL
- concentration at 2 h (clinical [3]; Max): 400 ng/mL
- concentration at 4 h (clinical [3]; Max): 200 ng/mL
- concentration at 8 h (clinical [3]; Max): 150 ng/mL
- concentration at 0 h (clinical [3]; Min): 0 ng/mL
- concentration at 2 h (clinical [3]; Min): 20 ng/mL
- concentration at 4 h (clinical [3]; Min): 15 ng/mL
- concentration at 8 h (clinical [3]; Min): 0 ng/mL
- solubility [4]: Limited solubility
- inhibition of type-III phosphodiesterase [5]: highly selective inhibition
